Assay results taken from PMC12527922, “Cocaine chemogenetics blunts drug-seeking by synthetic physiology” (Nature, 2025).
Several values for one entry are separate records, joined by “and”; a condition that tells them apart may be missing. Identical values can stand only once. Like-named read-outs stand apart in the source and are kept apart here.

Biological target: coca-5HT3 (Homo sapiens, UniProt P36544, G175K/L141G/Y210F/Y217F)
Assay: [^3H]ASEM displacement, membranes of HEK293 cells expressing coca-5HT3
Format: binding, human α7 nAChR LBD, mouse 5HT3 IPD
Details: for [3H]ASEM binding, normalised dose-response (DR replicates): HotNM 2.000
Method: Cells were suspended in Tris-HCl 50 mM pH 7.4 supplemented with protease inhibitor cocktail (1:100, Sigma-Aldrich). HEK293 cells were disrupted with a 6 Polytron homogenizer (Kinematica). Homogenates were centrifuged at 48,000g (50 min, 4 °C) and washed twice in the same conditions to isolate the membrane fraction. Protein was quantified using the bicinchoninic acid method (Pierce). […] Free and membrane-bound radioligands were separated by rapid filtration of 500 μl aliquots in a 96-well plate harvester (Brandel) and washed with 2 ml of ice-cold Tris-HCl buffer. Microscint-20 scintillation liquid (65 μl per well, PerkinElmer) was added to the filter plates, plates were incubated overnight at room temperature and radioactivity counts were determined in the MicroBeta2 plate counter (PerkinElmer) with an efficiency of 41%. Two-site competition curves were fitted using Prism 10 (GraphPad). Ki values were calculated using the Cheng–Prusoff equation.

[1] = Two sites - Fit Ki, best-fit value per replicate
[2] = Two sites - Fit Ki, best-fit value, single experiment

coca-5HT3, sequence (P23979 242-489): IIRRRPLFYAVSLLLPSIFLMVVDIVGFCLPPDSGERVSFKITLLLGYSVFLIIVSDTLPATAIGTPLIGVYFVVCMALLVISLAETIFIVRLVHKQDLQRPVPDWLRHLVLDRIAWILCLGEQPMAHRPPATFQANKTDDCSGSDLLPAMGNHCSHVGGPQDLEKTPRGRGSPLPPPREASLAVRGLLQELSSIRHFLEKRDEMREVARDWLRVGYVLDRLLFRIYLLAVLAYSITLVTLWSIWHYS
coca-5HT3, sequence (P36544 23-224 L141G/G175K/Y210F/Y217F): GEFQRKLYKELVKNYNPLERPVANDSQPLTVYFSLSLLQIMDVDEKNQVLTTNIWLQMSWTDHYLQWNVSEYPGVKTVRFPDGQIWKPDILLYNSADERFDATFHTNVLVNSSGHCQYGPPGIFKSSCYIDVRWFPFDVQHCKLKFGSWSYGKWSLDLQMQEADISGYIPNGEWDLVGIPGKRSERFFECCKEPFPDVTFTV

`COC(=O)[C@H]1[C@@H](OC(=O)c2ccccc2)C[C@@H]2CC[C@H]1N2C` [cocaine] was tested, and the “binding to coca-5HT3” value was “biphasic manner”, the Ki (KiHi MEAN, Two sites - Fit Ki, MEAN of replicates, high-affinity site, concentrations in log(M)) was 1.43e-11 M and the Ki (KiHi, Two sites - Fit Ki, best-fit value per replicate, high-affinity site, concentrations in log(M)) was 2.45e-11 M and 4.07e-12 M. The Ki (KiHi, Two sites - Fit Ki, best-fit value, single experiment) was 3.36e-09 M and 4.69e-10 M and 1.04e-09 M, the Ki (KiLo MEAN, Two sites - Fit Ki, MEAN of replicates, low-affinity site, concentrations in log(M)) was 8.42e-07 M and the Ki (KiLo, Two sites - Fit Ki, best-fit value per replicate, low-affinity site, concentrations in log(M)) was 1.34e-06 M and 3.42e-07 M. For the same compound, the “FractionHi MEAN” value (Two sites - Fit Ki, MEAN of 3 experiments) was 0.4542, the Ki (Two sites - Fit Ki, MEAN of 3 experiments, read-out: KiHi MEAN) was 1.62e-09 M and the Ki (Two sites - Fit Ki, MEAN of 3 experiments, read-out: KiLo MEAN) was 1.05e-05 M. The Bottom [1] was 2.185 and 3.88, the Top [1] was 100.5 and 97.8 and the FractionHi (Two sites - Fit Ki, best-fit value per replicate, fraction of high-affinity sites) was 0.3742 and 0.3845. The logKiHi (Two sites - Fit Ki, best-fit value per replicate, high-affinity site, concentrations in log(M), HotNM 2.000, HotKdNM 0.1500) was -10.61 and -11.39, the logKiLo (Two sites - Fit Ki, best-fit value per replicate, low-affinity site, concentrations in log(M), HotNM 2.000, HotKdNM 0.1500) was -5.872 and -6.466 and the FractionHi [2] was 0.6584 and 0.3371 and 0.3672. For the same compound, the Top [2] was 99.93 and 93.31 and 95.95, the “FractionHi MEAN” value (Two sites - Fit Ki, MEAN of replicates) was 0.3794 and the high-affinity binding sites (biphasic curve, displacement of [^3H]ASEM 2 nM) was 45 ± 10%. The “[3H]ASEM binding, normalised dose-response (DR replicates)” value (competitor log(M) -4) was 11.458 and 0, the “[3H]ASEM binding remaining, single experiment” value (“[3H]ASEM binding remaining” for short) (competitor log(M) -5) was 23.47 and 26.447 and 37.669 and the “[3H]ASEM binding, normalised dose-response (DR replicates)” value (competitor log(M) -5) was 47.775 and 41.228. For the same compound, the “[3H]ASEM binding remaining” value (competitor log(M) -5.5) was 17.557, the “[3H]ASEM binding, normalised dose-response (DR replicates)” value (competitor log(M) -5.5) was 48.554 and 26.456 and the “[3H]ASEM binding remaining” value (competitor log(M) -6) was 27.001. For the same compound, the “[3H]ASEM binding, normalised dose-response (DR replicates)” value (competitor log(M) -6) was 57.625 and 37.983, the “[3H]ASEM binding remaining” value (competitor log(M) -6.5) was 30.205 and 53.107 and the “[3H]ASEM binding, normalised dose-response (DR replicates)” value (competitor log(M) -6.5) was 51.124 and 74.04. The “[3H]ASEM binding remaining” value (competitor log(M) -7) was 57.024 and 47.634, the “[3H]ASEM binding, normalised dose-response (DR replicates)” value (competitor log(M) -7) was 70.9 and 74.174 and the “[3H]ASEM binding, normalised dose-response (DR replicates)” value (competitor log(M) -7.5) was 71.728. For the same compound, the “[3H]ASEM binding remaining” value (competitor log(M) -8) was 65.97 and 67.573 and 58.641, the “[3H]ASEM binding, normalised dose-response (DR replicates)” value (competitor log(M) -8) was 67.385 and 47.743 and the “[3H]ASEM binding remaining” value (competitor log(M) -8.5) was 74.698 and 69.889 and 68.057. For the same compound, the “[3H]ASEM binding remaining” value (competitor log(M) -9) was 100.179 and 77.048 and 83.003, the “[3H]ASEM binding, normalised dose-response (DR replicates)” value (competitor log(M) -9) was 72.343 and 49.428 and the “[3H]ASEM binding remaining” value (competitor log(M) -9.5) was 97.899 and 80.952 and 89.425. The “[3H]ASEM binding remaining” value (competitor log(M) -10) was 96.081 and 90.356 and 93.104, the “[3H]ASEM binding, normalised dose-response (DR replicates)” value (competitor log(M) -10) was 79.023 and the “[3H]ASEM binding remaining” value (competitor log(M) -10.5) was 106.622 and 85.323 and 92.652. For the same compound, the “[3H]ASEM binding remaining” value (competitor log(M) -11) was 94.021 and 93.563 and 93.105, the “[3H]ASEM binding, normalised dose-response (DR replicates)” value (competitor log(M) -11) was 91.338 and the “[3H]ASEM binding remaining” value (competitor log(M) -13) was 96.794 and 101.374 and 101.832. For the same compound, the “[3H]ASEM binding, normalised dose-response (DR replicates)” value (competitor log(M) -13) was 100.546 and 98.09, the Ki (high-affinity inhibition constant (KiH), displacement of [^3H]ASEM 2 nM, two-site fit) was 1.6e-09 ± 9e-10 M and the Ki (logKiHi, Two sites - Fit Ki, best-fit value, single experiment) was 3.37e-09 M and 4.69e-10 M and 1.04e-09 M. It also gave a Ki (read-out: low-affinity inhibition constant (KiL), displacement of [^3H]ASEM 2 nM, two-site fit) of 1e-05 ± 7e-06 M.
